Assays:
Assay in all cases: relative viability (nuclei count vs DMSO), 5 days (fraction); higher = more cells survive
AZD1208 + Decitabine = compound: N[C@@H]1CCCN(c2c(/C=C3\SC(=O)NC3=O)cccc2-c2ccccc2)C1 [AZD1208] + Nc1ncn([C@H]2C[C@H](O)[C@@H](CO)O2)c(=O)n1 [Decitabine] (partner 2 µM)
Outline: (§1)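 Values are medians from duplicate plates. Each reflects relative viability, defined as the nuclei count of treated wells over that of vehicle wells. Lung cancer cell lines in 1536-well plates were pin-tool dosed one day after seeding with one drug alone or with a fixed anchor-drug dose plus five library-drug doses (not always all listed) in √10 steps, then fixed, stained and imaged at 4× after 5 days.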

AZD1208 + Vorinostat = compound: N[C@@H]1CCCN(c2c(/C=C3\SC(=O)NC3=O)cccc2-c2ccccc2)C1 [AZD1208] + O=C(CCCCCCC(=O)Nc1ccccc1)NO [Vorinostat] (partner 1 µM)
Outline: as §1

XMD14-99 + Palbociclib = compound: CN1CCN(CC1)C2=CC(=C(C=C2)NC3=NC(=C(S3)C(=O)C4=C(C=CC=C4Cl)Cl)N)OC [XMD14-99] + CC(=O)c1c(C)c2cnc(Nc3ccc(N4CCNCC4)cn3)nc2n(C2CCCC2)c1=O [Palbociclib] (partner 0.5 µM)
Outline: as §1

AZD1208 + Phenformin = compound: N[C@@H]1CCCN(c2c(/C=C3\SC(=O)NC3=O)cccc2-c2ccccc2)C1 [AZD1208] + N=C(N)NC(=N)NCCc1ccccc1 [Phenformin] (partner 250 µM)
Outline: as §1

## UMC-11
AZD1208 + Decitabine; first compound 0.08 µM
  relative viability: 0.478
AZD1208 + Decitabine; first compound 0.253 µM
  relative viability: 0.513
AZD1208 + Decitabine; first compound 0.8 µM
  relative viability: 0.49
AZD1208 + Decitabine; first compound 2.53 µM
  relative viability: 0.515
AZD1208 + Decitabine; first compound 8 µM
  relative viability: 0.383
AZD1208 + Vorinostat; first compound 0.08 µM
  relative viability: 0.362
AZD1208 + Vorinostat; first compound 0.253 µM
  relative viability: 0.354
AZD1208 + Vorinostat; first compound 0.8 µM
  relative viability: 0.3
AZD1208 + Vorinostat; first compound 2.53 µM
  relative viability: 0.294
AZD1208 + Vorinostat; first compound 8 µM
  relative viability: 0.211
XMD14-99 + Palbociclib; first compound 0.08 µM
  relative viability: 0.34
XMD14-99 + Palbociclib; first compound 0.8 µM
  relative viability: 0.383
XMD14-99 + Palbociclib; first compound 2.53 µM
  relative viability: 0.346
XMD14-99 + Palbociclib; first compound 8 µM
  relative viability: 0.292
AZD1208 + Phenformin; first compound 0.08 µM
  relative viability: 0.312
AZD1208 + Phenformin; first compound 0.253 µM
  relative viability: 0.355
AZD1208 + Phenformin; first compound 0.8 µM
  relative viability: 0.339
AZD1208 + Phenformin; first compound 2.53 µM
  relative viability: 0.388
AZD1208 + Phenformin; first compound 8 µM
  relative viability: 0.306

Reference: the supplement of paper PMC10307832
